Test results: patent US12421232B2, “Kinase inhibitor compounds and compositions and methods of use” (ICAHN SCHOOL OF MEDICINE AT MOUNT SINAI, priority 2018, dated 2025)
Where two headings read alike, the source gives them in different places.

What was measured:
Assay in all cases: KINOMEscan Assay (DiscoverX)
Type in all cases: binding
FLT3(ITD) = FLT3(ITD) mutant; 10 μM
FLT3(N841I) = biological target: T1, FLT3(N841I) (Homo sapiens, UniProt P36888, N841I); conditions: read-out: % DMSO Ctrl
T1 construct: purchased DiscoverX
T1 sequence (P36888 27-993 N841I): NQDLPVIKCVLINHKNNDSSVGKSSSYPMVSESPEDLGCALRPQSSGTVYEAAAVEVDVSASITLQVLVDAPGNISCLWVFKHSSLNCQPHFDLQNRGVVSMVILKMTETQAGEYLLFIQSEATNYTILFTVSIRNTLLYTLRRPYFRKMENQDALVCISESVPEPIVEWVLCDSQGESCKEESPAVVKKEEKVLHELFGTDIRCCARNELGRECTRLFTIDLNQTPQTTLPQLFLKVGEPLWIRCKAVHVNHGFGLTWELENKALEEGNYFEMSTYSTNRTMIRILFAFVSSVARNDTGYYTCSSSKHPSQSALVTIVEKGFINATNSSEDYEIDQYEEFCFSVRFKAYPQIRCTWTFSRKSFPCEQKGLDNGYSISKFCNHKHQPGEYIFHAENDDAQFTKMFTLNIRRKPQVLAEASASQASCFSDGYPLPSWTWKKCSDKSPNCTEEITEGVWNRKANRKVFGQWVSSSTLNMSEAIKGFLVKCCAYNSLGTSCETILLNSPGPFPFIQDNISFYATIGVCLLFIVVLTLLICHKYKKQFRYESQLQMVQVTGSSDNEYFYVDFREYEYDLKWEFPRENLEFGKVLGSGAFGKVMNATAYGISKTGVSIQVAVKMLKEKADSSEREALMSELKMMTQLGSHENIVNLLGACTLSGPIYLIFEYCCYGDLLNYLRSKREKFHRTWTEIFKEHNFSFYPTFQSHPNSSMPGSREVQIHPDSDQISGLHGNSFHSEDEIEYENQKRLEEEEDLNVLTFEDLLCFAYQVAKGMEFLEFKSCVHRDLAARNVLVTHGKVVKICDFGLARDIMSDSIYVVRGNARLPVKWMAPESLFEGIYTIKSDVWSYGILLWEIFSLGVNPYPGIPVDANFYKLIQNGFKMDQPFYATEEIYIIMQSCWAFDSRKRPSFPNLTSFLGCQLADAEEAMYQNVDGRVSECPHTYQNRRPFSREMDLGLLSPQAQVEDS

MEK2 = biological target: T2, MEK2 (Homo sapiens, UniProt P36507); conditions: read-out: % DMSO Ctrl
T2 construct: purchased DiscoverX
T2 sequence (P36507 whole entry): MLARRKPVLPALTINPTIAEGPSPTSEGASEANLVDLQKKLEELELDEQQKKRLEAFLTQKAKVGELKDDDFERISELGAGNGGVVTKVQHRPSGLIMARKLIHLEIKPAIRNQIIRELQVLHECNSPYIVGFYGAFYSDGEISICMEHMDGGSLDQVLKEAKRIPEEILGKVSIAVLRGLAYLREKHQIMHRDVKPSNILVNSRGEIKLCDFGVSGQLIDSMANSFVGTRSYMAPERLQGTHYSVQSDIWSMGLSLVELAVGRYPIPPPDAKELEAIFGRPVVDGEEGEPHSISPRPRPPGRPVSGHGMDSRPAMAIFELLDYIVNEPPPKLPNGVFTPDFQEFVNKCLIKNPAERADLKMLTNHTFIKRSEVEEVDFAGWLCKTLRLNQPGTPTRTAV

PDGFRA = biological target: T3, PDGFRA (Homo sapiens, UniProt P16234); conditions: read-out: % DMSO Ctrl
T3 construct: purchased DiscoverX
T3 sequence (P16234 24-1089): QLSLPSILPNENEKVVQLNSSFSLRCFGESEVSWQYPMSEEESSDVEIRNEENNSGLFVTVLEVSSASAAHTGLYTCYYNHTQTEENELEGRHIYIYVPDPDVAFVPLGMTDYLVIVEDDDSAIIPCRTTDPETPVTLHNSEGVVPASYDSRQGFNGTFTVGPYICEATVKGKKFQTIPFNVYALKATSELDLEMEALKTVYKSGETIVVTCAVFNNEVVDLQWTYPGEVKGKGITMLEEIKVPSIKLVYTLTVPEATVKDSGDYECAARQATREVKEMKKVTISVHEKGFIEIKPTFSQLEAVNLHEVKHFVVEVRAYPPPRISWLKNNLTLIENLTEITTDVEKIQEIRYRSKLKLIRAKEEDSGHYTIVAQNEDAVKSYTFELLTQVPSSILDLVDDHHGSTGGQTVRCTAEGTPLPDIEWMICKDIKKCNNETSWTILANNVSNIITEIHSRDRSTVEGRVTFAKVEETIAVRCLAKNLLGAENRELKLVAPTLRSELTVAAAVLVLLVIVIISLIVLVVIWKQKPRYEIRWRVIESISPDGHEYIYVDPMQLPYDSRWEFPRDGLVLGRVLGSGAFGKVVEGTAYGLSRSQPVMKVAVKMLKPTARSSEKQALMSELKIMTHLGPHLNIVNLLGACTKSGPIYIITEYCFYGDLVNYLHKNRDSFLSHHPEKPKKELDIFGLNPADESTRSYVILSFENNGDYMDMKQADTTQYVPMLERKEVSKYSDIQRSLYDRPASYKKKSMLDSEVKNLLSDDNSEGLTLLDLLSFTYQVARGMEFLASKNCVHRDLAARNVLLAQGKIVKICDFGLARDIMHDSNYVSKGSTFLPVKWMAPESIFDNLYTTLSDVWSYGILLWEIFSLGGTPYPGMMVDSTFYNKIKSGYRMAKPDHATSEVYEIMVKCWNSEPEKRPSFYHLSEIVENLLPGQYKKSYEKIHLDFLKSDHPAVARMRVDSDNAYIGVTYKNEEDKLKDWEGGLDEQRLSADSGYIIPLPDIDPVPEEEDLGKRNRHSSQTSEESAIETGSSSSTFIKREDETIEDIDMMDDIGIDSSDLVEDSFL

PIK3CG = biological target: T4, PIK3CG (Homo sapiens, UniProt P48736); conditions: read-out: % DMSO Ctrl
T4 construct: purchased DiscoverX
T4 sequence (P48736 whole entry): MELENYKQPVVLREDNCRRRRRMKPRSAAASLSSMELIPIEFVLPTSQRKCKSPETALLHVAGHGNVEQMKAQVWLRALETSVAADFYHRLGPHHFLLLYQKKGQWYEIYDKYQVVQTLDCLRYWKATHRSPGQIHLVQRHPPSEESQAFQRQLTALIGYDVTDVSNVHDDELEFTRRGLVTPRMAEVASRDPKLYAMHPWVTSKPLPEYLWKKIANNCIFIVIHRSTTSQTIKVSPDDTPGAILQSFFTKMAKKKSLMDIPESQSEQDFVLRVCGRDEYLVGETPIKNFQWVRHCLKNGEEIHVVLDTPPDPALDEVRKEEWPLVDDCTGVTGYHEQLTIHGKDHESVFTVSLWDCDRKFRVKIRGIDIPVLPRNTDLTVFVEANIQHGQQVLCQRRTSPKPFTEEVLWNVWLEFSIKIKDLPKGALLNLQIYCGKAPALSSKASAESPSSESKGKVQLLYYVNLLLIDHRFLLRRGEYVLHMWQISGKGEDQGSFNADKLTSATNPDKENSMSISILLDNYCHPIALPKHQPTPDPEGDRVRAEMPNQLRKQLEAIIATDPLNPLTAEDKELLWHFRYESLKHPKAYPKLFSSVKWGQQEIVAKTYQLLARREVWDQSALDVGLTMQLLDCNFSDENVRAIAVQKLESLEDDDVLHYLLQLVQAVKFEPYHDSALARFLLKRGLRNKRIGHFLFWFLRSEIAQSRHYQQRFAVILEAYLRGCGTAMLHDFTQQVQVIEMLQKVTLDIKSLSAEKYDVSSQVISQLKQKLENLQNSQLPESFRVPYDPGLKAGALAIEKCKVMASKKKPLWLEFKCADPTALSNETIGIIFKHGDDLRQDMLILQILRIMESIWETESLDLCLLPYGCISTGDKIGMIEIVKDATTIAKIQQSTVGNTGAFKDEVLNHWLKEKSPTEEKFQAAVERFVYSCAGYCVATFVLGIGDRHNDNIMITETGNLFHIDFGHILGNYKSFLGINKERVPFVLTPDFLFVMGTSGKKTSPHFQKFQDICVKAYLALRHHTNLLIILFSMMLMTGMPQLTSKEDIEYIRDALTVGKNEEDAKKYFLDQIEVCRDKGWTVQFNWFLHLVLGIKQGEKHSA

ROCK1 = biological target: T5, ROCK1 (Homo sapiens, UniProt Q13464); conditions: read-out: % DMSO Ctrl
T5 construct: purchased DiscoverX

SGK = biological target: T6, SGK (Homo sapiens, UniProt O00141); conditions: read-out: % DMSO Ctrl
T6 construct: purchased DiscoverX
T6 sequence (O00141 1-431): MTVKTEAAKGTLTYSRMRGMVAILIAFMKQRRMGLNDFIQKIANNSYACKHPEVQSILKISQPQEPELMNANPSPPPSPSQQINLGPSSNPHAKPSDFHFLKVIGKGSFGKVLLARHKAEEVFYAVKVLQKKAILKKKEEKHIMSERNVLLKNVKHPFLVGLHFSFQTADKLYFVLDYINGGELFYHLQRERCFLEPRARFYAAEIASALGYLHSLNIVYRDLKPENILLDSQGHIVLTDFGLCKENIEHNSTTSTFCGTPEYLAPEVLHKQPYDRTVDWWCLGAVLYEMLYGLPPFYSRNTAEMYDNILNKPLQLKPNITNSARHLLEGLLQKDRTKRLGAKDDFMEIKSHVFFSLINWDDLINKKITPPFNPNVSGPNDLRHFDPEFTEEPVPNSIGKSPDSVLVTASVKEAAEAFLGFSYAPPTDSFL

TAOK3 = biological target: T7, TAOK3 (Homo sapiens, UniProt Q9H2K8); conditions: read-out: % DMSO Ctrl
T7 construct: purchased DiscoverX
T7 sequence (Q9H2K8 1-898): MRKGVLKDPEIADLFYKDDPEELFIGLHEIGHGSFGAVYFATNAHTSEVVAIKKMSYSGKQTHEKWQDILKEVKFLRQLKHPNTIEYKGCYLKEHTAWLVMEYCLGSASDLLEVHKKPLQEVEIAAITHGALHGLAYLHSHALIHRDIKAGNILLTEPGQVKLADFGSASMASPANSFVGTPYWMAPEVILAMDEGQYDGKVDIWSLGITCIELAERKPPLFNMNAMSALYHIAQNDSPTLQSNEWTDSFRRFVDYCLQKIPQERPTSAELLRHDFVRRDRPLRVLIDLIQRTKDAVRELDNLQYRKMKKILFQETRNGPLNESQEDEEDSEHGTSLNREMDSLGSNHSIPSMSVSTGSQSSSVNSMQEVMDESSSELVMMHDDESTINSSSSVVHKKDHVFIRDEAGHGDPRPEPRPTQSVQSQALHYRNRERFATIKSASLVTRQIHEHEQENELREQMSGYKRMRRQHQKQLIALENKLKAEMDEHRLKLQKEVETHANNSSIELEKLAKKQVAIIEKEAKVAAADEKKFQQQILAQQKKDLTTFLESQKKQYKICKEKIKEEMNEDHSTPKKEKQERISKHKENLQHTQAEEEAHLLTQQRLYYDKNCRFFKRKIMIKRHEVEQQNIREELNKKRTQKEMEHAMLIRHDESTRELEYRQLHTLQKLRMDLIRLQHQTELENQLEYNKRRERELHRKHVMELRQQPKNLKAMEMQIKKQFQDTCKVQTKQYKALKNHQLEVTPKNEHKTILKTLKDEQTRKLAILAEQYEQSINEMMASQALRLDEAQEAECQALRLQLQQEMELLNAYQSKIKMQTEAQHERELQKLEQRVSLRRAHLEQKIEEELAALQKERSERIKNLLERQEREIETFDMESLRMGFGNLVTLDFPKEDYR

CSNK1G2 = biological target: T8, CSNK1G2 (Homo sapiens, UniProt P78368); conditions: read-out: % DMSO Ctrl
T8 construct: purchased DiscoverX
T8 sequence (P78368 whole entry): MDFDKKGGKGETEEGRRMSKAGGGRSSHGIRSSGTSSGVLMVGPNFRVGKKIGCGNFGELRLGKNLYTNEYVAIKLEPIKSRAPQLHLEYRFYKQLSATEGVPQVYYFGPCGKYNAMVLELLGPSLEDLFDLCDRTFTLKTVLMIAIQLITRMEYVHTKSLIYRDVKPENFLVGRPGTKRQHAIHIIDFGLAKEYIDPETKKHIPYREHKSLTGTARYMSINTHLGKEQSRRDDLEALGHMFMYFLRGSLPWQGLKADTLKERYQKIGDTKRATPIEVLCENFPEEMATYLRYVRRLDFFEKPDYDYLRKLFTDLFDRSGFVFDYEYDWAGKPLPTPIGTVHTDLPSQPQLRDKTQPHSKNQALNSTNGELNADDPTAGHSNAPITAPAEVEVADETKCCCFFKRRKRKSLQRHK

HIPK3 = biological target: T9, HIPK3 (Homo sapiens, UniProt Q9H422); conditions: read-out: % DMSO Ctrl
T9 construct: purchased DiscoverX
T9 sequence (Q9H422 whole entry): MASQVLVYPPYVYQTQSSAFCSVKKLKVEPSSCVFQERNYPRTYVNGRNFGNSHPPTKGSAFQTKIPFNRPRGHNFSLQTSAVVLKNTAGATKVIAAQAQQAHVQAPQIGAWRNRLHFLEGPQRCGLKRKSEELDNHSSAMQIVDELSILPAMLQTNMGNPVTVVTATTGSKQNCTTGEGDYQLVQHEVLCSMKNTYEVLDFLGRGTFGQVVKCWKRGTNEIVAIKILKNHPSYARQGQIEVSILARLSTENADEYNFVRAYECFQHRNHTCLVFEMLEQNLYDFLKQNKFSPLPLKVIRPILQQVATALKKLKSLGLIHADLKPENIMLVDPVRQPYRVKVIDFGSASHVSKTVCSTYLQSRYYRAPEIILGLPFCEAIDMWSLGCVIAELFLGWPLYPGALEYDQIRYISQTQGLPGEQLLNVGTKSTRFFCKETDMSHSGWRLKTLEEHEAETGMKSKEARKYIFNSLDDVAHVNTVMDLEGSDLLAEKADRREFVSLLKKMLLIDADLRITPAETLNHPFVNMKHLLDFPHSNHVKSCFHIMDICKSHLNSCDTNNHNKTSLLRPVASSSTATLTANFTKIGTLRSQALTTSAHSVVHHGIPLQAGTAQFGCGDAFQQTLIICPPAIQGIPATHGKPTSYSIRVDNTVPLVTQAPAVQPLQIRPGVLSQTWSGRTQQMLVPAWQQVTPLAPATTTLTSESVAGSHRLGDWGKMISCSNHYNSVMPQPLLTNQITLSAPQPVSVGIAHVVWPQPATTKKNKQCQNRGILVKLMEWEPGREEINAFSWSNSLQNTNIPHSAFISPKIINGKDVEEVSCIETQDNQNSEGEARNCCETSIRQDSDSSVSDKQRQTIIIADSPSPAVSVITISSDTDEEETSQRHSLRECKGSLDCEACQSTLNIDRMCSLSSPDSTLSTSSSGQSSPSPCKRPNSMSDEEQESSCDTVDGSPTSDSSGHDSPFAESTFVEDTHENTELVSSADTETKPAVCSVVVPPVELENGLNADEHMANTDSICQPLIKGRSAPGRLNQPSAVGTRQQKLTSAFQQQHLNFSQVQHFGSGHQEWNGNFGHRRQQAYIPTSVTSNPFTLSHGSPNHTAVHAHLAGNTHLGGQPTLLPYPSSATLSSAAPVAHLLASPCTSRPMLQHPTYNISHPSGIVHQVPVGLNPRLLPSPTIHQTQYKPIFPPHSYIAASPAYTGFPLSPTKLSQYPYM

PIM2 = biological target: T10, PIM2 (Homo sapiens, UniProt Q9P1W9); conditions: read-out: % DMSO Ctrl
T10 construct: purchased DiscoverX
T10 sequence (Q9P1W9 whole entry): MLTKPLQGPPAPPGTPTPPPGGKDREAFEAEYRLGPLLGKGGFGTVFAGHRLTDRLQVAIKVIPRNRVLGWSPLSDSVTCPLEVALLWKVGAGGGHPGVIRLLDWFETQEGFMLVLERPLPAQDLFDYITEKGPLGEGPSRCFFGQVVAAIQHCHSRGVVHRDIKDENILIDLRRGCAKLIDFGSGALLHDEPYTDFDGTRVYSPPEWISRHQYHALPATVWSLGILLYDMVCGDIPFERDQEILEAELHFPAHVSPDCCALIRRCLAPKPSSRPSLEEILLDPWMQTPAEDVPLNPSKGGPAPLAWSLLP

Row | SMILES | % DMSO Ctrl (FLT3(ITD)) | remaining binding at 10 µM (ROCK1; ROCK1, 10 μM) | remaining binding at 10 µM (CSNK1G2) | remaining binding at 10 µM (FLT3(N841I)) | remaining binding at 10 µM (HIPK3) | remaining binding at 10 µM (MEK2) | remaining binding at 10 µM (PDGFRA) | remaining binding at 10 µM (PIK3CG) | remaining binding at 10 µM (PIM2) | remaining binding at 10 µM (ROCK1) | remaining binding at 10 µM (SGK) | remaining binding at 10 µM (TAOK3) | also measured
1 | COc1ccc2c(c1)[nH]c1c(C)nc(CO)cc12 [Compound 2-8, (1-Methyl-7-methoxy-9H-pyrido[3,4-b]indol-3-yl)methanol] | 87 % DMSO Ctrl | 33% | – | – | – | – | – | – | – | – | – | – | remaining binding at 10 µM (FLT3(N841I); FLT3(N841I) mutant, 10 μM): 74%; remaining binding at 10 µM (MEK2; MEK2, 10 μM): 100%; remaining binding at 10 µM (PDGFRA; PDGFRA, 10 μM): 100%; remaining binding at 10 µM (PIK3CG; PIK3CG, 10 μM): 67%; remaining binding at 10 µM (SGK; SGK, 10 μM): 31%; remaining binding at 10 µM (TAOK3; TAOK3, 10 μM): 70%
2 | COc1ccc2c3ccnc(C)c3n(CCCc3noc(N)n3)c2c1 [Compound 20-13, 3-(3-(7-Methoxy-1-methyl-β-carbolin-9-yl)propyl)-5-amino-1,2,4-oxadiazole] | 72 % DMSO Ctrl | – | 91% | 78% | 6.2% | 0% | 83% | 3.3% | 38% | 24% | 90% | 77% | –
3 | C#CCn1c2cc(OC)ccc2c2ccnc(C)c21 [Compound 20-23a, 3-(7-Methoxy-1-methyl-β-carbolin-9-yl)-propan-1-yne] | 61 % DMSO Ctrl | 9.2% | – | 41% | – | 96% | 100% | 42% | – | – | 63% | 93% | remaining binding at 10 µM (CSNK1G2; CSNK1G2, 10 μM): 56%; remaining binding at 10 µM (HIPK3; HIPK3, 10 μM): 4.5%; remaining binding at 10 µM (PIM2; PIM2, 10 μM): 19%
4 | COc1ccc2c(c1)[nH]c1c(C)nccc12 [Harmine, reference compound] | – | – | 19% | – | 9.4% | – | – | – | 39% | 26% | – | – | –
